The source of these data is patent US9556201B2, “Bicyclic pyridines and analogs as sirtuin modulators” (GLAXOSMITHKLINE LLC, priority 2009, dated 2017).

Each structure is given as a SMILES string.

The experiment deals with T1, SIRT1 (Homo sapiens, UniProt Q96EB6).
T1 sequence (Q96EB6 1-747): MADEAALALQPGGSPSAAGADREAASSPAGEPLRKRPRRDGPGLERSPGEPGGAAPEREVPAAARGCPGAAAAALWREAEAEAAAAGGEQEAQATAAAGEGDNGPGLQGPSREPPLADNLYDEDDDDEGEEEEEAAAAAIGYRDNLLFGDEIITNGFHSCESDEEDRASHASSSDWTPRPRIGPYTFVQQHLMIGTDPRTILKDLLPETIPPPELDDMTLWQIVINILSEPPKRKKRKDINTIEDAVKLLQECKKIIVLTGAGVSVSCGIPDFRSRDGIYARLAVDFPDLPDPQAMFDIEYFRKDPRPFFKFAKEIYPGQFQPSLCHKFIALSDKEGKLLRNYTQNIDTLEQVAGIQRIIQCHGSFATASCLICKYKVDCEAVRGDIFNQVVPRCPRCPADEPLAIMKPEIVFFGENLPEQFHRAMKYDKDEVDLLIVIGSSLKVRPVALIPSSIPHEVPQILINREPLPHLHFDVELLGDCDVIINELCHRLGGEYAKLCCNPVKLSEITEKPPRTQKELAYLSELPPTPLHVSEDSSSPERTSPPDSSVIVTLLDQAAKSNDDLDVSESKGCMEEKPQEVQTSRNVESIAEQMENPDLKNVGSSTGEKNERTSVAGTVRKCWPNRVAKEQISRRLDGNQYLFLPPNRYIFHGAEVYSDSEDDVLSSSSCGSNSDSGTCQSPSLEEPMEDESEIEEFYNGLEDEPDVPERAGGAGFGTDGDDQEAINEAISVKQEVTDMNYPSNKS
The experiment can be described thus: Mass spectrometry based assay to identify modulators of SIRT1 activity (deacetylation of p53-based acetylated peptide substrate). Format: biochemical. To be noted: for Emax: 25 min, read-out: % FOLD ACT. (percent maximum fold activation); for Emax / EC1.5: SIRT1 activation. In short, it runs like this:
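Deacetylation of a modified p53 acetyl-lysine peptide ([…], 5TMR-labelled, Nle for Met) by 10 nM N-His SIRT1 with 120 μM βNAD+, pH 8, 25 min, 25 °C. Substrate and product masses measured by MS after formic acid quench; nicotinamide defines maximal inhibition.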

With `Cc1csc(NC(=O)N2CCOc3ncc(-c4cccc(C(F)(F)F)c4)nc32)n1` [Compound 740, N-(4-methylthiazol-2-yl)-6-(3-(trifluoromethyl)phenyl)-2H-pyrazino[2,3-b][1,4]oxazine-4(3H)-carboxamide], the EC1.5 (concentration giving 1.5-fold activation) was more than 25 µM and the Emax was not above 200%.

Turning to `O=C(c1ccnc(OCC(O)CO)c1)N1CCOc2ccc(-c3cccc(C(F)(F)F)c3)nc21` (stereo not drawn) [Compound 518, (2-(2,3-dihydroxypropoxy)pyridin-4-yl)(6-(3-(trifluoromethyl)phenyl)-2H-pyrido[3,2-b][1,4]oxazin-4(3H)-yl)methanone], the Emax is not above 200% and the EC1.5 entry is recorded as “B (EC1.5 1-25 μM)”.

With `O=C1CCN(C(=O)Nc2ccc(F)cn2)c2nc(-c3cccc(C(F)(F)F)c3)ccc21` [Compound 730], the EC1.5 (concentration giving 1.5-fold activation) was in the range of 1 to 25 µM and the Emax is not above 200%.

`O=C(Nc1ccnc(N2CCC2)c1)N1CCCOc2ccc(-c3cccc(F)c3)nc21` [Compound 584]: the Emax was more than 200% and the EC1.5 entry was “B (EC1.5 1-25 μM)”.

As for `O=C(Nc1ccncn1)N1CCCC(F)(F)c2ccc(-c3cccc(Cl)c3)nc21` [Compound 799, 2-(3-chlorophenyl)-5,5-difluoro-N-(pyrimidin-4-yl)-7,8-dihydro-5H-pyrido[2,3-b]azepine-9(6H)-carboxamide], the EC1.5 (concentration giving 1.5-fold activation) lay within 1 to 25 µM and the Emax is not above 200%.

`Cc1cc(NC(=O)N2CCCOc3ccc(-c4cccc(C(F)(F)F)c4)nc32)ccn1` [Compound 577]: the Emax is more than 200% and the EC1.5 entry was “B (EC1.5 1-25 μM)”.

In the case of `Cc1cccc(NC(=O)N2CCCCc3ccc(-c4cccc(C(F)(F)F)c4)nc32)n1` [Compound 818], the EC1.5 (concentration giving 1.5-fold activation) is more than 25 µM and the Emax is not above 200%.

Regarding `O=C(Nc1cccc(OC[C@H](O)CO)n1)N1CCCc2ccc(-c3cccc(F)c3)nc21` [Compound 679], the Emax is more than 200% and the EC1.5 entry is “A (EC1.5<1.0 μM)”.

For the compound `Cc1cc(-c2ccc3c(n2)N(C(=O)Nc2cc(C)nc(C)c2)CCCO3)ccn1` [Compound 657], the Emax was more than 200% and the EC1.5 entry is “B (EC1.5 1-25 μM)”.

`Cc1cc(OCC(O)CO)nc(NC(=O)N2CCC(F)(F)c3ccc(-c4cccc(C(F)(F)F)c4)nc32)n1` (stereo not drawn) [Compound 824]: the EC1.5 (concentration giving 1.5-fold activation) lay in the range of 1 to 25 µM and the Emax is not above 200%.

On to `O=C(Nc1ccncc1)N1CCOc2ccc(-c3ccccc3)nc21` [Compound 673], for which the Emax was more than 200% and the EC1.5 result was “A (EC1.5<1.0 μM)”.

In the case of `Cc1cncc(NC(=O)N2CCCOc3ccc(-c4cccc(N5CCCC5)c4)nc32)c1` [Compound 610], the Emax was more than 200% and the EC1.5 entry is “B (EC1.5 1-25 μM)”.

For `Cc1ncccc1NC(=O)N1CCOc2ccc(-c3cccc(C(F)(F)F)c3)nc21` [Compound 555], the Emax was not above 200% and the EC1.5 entry is listed as “B (EC1.5 1-25 μM)”.

Consider `CN(C)c1nc(-c2cccc(F)c2)nc2c1OCCN2C(=O)Nc1ccncc1` [Compound 736, 4-(dimethylamino)-2-(3-fluorophenyl)-N-(pyridin-4-yl)-6H-pyrimido[5,4-b][1,4]oxazine-8(7H)-carboxamide], for which the EC1.5 (concentration giving 1.5-fold activation) was more than 25 µM and the Emax was not above 200%.

In the case of `O=C(Nc1ccnc2cccnc12)N1CCCOc2ccc(-c3cccc(Cl)c3)nc21` [Compound 884], the EC1.5 (concentration giving 1.5-fold activation) is 1 to 25 µM and the Emax was more than 200%.

Take `O=C(Nc1ncccn1)N1CCCc2ccc(-c3cccc(C(F)(F)F)c3)nc21` [Compound 666]: the Emax was more than 200% and the EC1.5 result is reported as “A (EC1.5<1.0 μM)”.

Regarding `O=C(Nc1ccncc1)N1CCOc2cnc(-c3cccc(Cl)c3)nc21` [Compound 720], the EC1.5 (concentration giving 1.5-fold activation) fell in the range of 1 to 25 µM and the Emax is not above 200%.

`O=C(Nc1ccc(F)cn1)N1CCCOc2ccc(-c3cccc(Cl)c3)nc21` [Compound 762]: the EC1.5 (concentration giving 1.5-fold activation) lay within 1 to 25 µM and the Emax was not above 200%.

For `O=C(Nc1ccnc(N2CCC2)c1)N1CCCOc2ccc(-c3cccc(C(F)(F)F)c3)nc21` [Compound 579], the Emax is more than 200% and the EC1.5 result is on record as “A (EC1.5<1.0 μM)”.

On to `O=C(Nc1cccc(OCC(O)CO)c1)N1CCC(F)(F)c2ccc(-c3cccc(C(F)(F)F)c3)nc21` (stereo not drawn) [Compound 841], for which the EC1.5 (concentration giving 1.5-fold activation) is less than 1 µM and the Emax was more than 200%.

With `O=C(Nc1ccccn1)N1CCCCc2ccc(-c3cccc(Cl)c3)nc21` [Compound 754], the EC1.5 (concentration giving 1.5-fold activation) was in the range of 1 to 25 µM and the Emax is not above 200%.

For the compound `Cc1cc(NC(=O)N2CCOc3ccc(-c4cnn(C)c4C)nc32)cc(C)n1` [Compound 572], the Emax was more than 200% and the EC1.5 entry is recorded as “B (EC1.5 1-25 μM)”.

On to `CC1(C)CCN(C(=O)Nc2ccncc2F)c2nc(-c3cccc(Cl)c3)ccc2C1=O` [Compound 836, 2-(3-chlorophenyl)-N-(3-fluoropyridin-4-yl)-6,6-dimethyl-5-oxo-7,8-dihydro-5H-pyrido[2,3-b]azepine-9(6H)-carboxamide], for which the EC1.5 (concentration giving 1.5-fold activation) is 1 to 25 µM and the Emax was not above 200%.

In the case of `O=C(Nc1ccncc1)N1CCC(F)(F)c2ccc(-c3cccc(C(F)(F)F)c3)nc21` [Compound 743, 4,4-difluoro-N-(pyridin-4-yl)-7-(3-(trifluoromethyl)phenyl)-3,4-dihydro-1,8-naphthyridine-1(2H)-carboxamide], the EC1.5 (concentration giving 1.5-fold activation) lay within 1 to 25 µM and the Emax is more than 200%.

Consider `COc1nccc(NC(=O)N2CCCOc3ccc(-c4cccc(Cl)c4)nc32)n1` [Compound 854], for which the EC1.5 (concentration giving 1.5-fold activation) fell in the range of 1 to 25 µM and the Emax was more than 200%.

Turning to `O=C(Nc1ccncc1)N1CCOc2ccc(-c3ccccc3C(F)(F)F)nc21` [Compound 546], the Emax was more than 200% and the EC1.5 result is on record as “B (EC1.5 1-25 μM)”.

On to `O=C(Nc1cncnc1)N1CCC(F)(F)c2ccc(-c3cccc(C(F)(F)F)c3)nc21` [Compound 753], for which the EC1.5 (concentration giving 1.5-fold activation) was 1 to 25 µM and the Emax was more than 200%.

As for `O=C(Nc1ccncc1)N1CCOc2c(N3CCCC3)nc(-c3cccc(F)c3)nc21` [Compound 737], the EC1.5 (concentration giving 1.5-fold activation) is more than 25 µM and the Emax was not above 200%.

With `O=C(Nc1cccnc1)N1CCCc2ccc(-c3cccc(F)c3)nc21` [Compound 650], the Emax was more than 200% and the EC1.5 entry is “B (EC1.5 1-25 μM)”.

`CC1(C)CN(C(=O)Nc2ccncc2)c2nc(-c3cccc(F)c3)ccc2O1` [Compound 561]: the Emax is more than 200% and the EC1.5 result was “B (EC1.5 1-25 μM)”.

`Cc1cncc(NC(=O)N2CCCOc3ccc(-c4cccc(F)c4)nc32)c1` [Compound 581]: the Emax is more than 200% and the EC1.5 result was “B (EC1.5 1-25 μM)”.

For the compound `Cc1nc(NC(=O)N2CCCOc3ccc(-c4cccc(Cl)c4)nc32)sc1C` [Compound 703], the EC1.5 (concentration giving 1.5-fold activation) is less than 1 µM and the Emax is more than 200%.

In the case of `CCN1CCCN(C(=O)Nc2ccc(F)cn2)c2nc(-c3cccc(Cl)c3)ccc21` [Compound 807], the EC1.5 (concentration giving 1.5-fold activation) was more than 25 µM and the Emax is not above 200%.
